Tests used:
[1] = molecular target: T1, human muscarinic M1 receptor (Homo sapiens, UniProt P11229); assay: Alphascreen Surefire phospho-ERK1/2 functional assay, M1; assay type: cell-based; conditions: for EC50: CHO cells stably expressing human M1, read-out: pEC50 M1 (converted); for Emax: CHO, read-out: % Emax cf. ACh, M1, CHO cells stably expressing human M1, relative to ACh; for % Emax cf. ACh, M1: CHO cells stably expressing human M1, relative to ACh
T1 sequence (P11229 1-460): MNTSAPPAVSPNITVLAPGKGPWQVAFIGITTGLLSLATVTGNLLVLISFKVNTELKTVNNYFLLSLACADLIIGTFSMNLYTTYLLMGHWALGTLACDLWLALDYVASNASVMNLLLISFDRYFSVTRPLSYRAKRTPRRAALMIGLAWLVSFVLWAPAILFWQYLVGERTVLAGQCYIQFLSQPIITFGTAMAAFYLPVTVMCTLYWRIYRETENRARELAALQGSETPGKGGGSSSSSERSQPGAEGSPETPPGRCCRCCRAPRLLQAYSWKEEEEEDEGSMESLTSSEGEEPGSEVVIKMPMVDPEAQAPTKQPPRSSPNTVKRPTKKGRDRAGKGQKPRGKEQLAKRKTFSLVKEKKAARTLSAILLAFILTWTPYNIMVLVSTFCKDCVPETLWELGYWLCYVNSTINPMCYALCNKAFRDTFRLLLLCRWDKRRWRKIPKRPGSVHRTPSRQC
Protocol: (§1) ERK1/2 phosphorylation is a downstream consequence of both Gq/11 and Gi/o protein coupled receptor activation, making it highly suitable for the assessment of M1, M3 (Gq/11 coupled) and M2, M4 receptors (Gi/o coupled), rather than using different assay formats for different receptor subtypes. CHO cells stably expressing the human muscarinic M1, M2, M3 or M4 receptor were plated (25K/well) onto 96-well tissue culture plates in MEM-alpha+10% dialysed FBS. Once adhered, cells were serum-starved overnight. Agonist stimulation was performed by the addition of 5 μL agonist to the cells for 5 min (37° C.). Media was removed and 50 μL of lysis buffer added. […] Plates were incubated for 2 h with gentle agitation in the dark and then read on a PHERAstar plate reader.
(§2) pEC50 and Emax figures were calculated from the resulting data for each receptor subtype.

[2] = molecular target: T2, human muscarinic M4 receptor (Homo sapiens, UniProt P08173); assay: Alphascreen Surefire phospho-ERK1/2 functional assay, M4; assay type: cell-based; conditions: for EC50: CHO cells stably expressing human M4, read-out: pEC50 M4 (converted); for Emax: CHO, read-out: % Emax cf. ACh, M4, CHO cells stably expressing human M4, relative to ACh; for % Emax cf. ACh, M4: CHO cells stably expressing human M4, relative to ACh
T2 construct: expressed in transfected cells
T2 sequence (P08173 1-479): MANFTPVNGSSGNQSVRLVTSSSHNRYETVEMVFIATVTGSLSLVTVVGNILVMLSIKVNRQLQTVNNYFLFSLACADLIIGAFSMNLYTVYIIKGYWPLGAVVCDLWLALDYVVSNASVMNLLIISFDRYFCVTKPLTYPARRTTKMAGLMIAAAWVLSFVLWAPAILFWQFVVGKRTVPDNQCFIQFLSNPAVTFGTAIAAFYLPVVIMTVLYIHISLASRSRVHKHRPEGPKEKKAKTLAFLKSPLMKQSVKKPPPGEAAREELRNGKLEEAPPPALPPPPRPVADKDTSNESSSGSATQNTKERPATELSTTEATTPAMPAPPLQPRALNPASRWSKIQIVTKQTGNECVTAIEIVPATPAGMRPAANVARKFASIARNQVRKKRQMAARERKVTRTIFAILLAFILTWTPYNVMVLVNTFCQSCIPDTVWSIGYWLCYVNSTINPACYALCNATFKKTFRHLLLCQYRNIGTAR
Protocol: as §1, §2

Row | SMILES | EC50 [1] [nM] | Emax [1] [%] | EC50 [2] [nM] | Emax [2] [%] | further results
1 | CSC(=O)N1C2CCC1CC(N1CCC3(CC1)CNC(=O)C3)C2 (single isomer, unassigned) [Example 2-34 Isomer 1] | 501 | 50 | > 20000 | 8 | 
2 | CCOC(=O)N1CC2CCC1CC2N1CCC2(CC1)OC(=O)NC2CC (single isomer, unassigned) [Example 3-3 Isomer 2, ethyl 5-(4-ethyl-2-oxo-1-oxa-3,8-diazaspiro[4.5]dec-8-yl)-2-azabicyclo[2.2.2]octane-2-carboxylate] | 794 | 76 | 316 | 56 | 
3 | CC(C)OC(=O)N1C2CCC1CC(N1CCC3(CC1)CNC(=O)C3)C2 (single isomer, unassigned) [Example 2-33 Isomer 2] | 398 |  | 316 |  | % Emax cf. ACh, M1 ([1]; listed as 2-33 Isomer 2): 62%; % Emax cf. ACh, M4 [2]: 25%
4 | CCOC(=O)N1C2CCC1C(F)C(N1CCC3(CC1)CNC(=O)O3)C2 (single isomer, unassigned) [Example 2-19 Isomer 2] | 1000 | 94 | 3980 | 74 | 
5 | COC(=O)N1CC2CC(N3CCC4(CC3)CNC(=O)C4)CC1C2 (single isomer, unassigned) [Example 6-1 Isomer 1] | 2510 |  | > 20000 | 53 | % Emax cf. ACh, M1 ([1]; listed as 6-1 Isomer 1): 78%
6 | CCOC(=O)N1C2CCC1CC(N1CCC3(CC1)CC(=O)N(C(C)C)C3)C2 (single isomer, unassigned) [Example 2-26 Isomer 2] | 631 | 43 | 631 | 22 | 
7 | [2H]C([2H])(C)OC(=O)N1C2CCC1CC(N1CCC3(CC1)CNC(=O)C3)C2 (single isomer, unassigned) [Example 2-30 Isomer 1, (1,1-^2H2)ethyl 3-(3-oxo-2,8-diazaspiro[4.5]dec-8-yl)-8-azabicyclo[3.2.1]octane-8-carboxylate] | 126 |  | 200 | 49 | % Emax cf. ACh, M1 ([1]; listed as 2-30 Isomer 1): 107%
8 | CCOC(=O)N1C2CCC1CC(N1CCCC3(CC1)CNC(=O)O3)C2 (single isomer, unassigned) [Example 9-2 Isomer 3, ethyl 3-(2-oxo-1-oxa-3,8-diazaspiro[4.6]undec-8-yl)-8-azabicyclo[3.2.1]octane-8-carboxylate] | 501 |  | 79.4 |  | % Emax cf. ACh, M1 ([1]; listed as 9-2 Isomer 3): 113%; % Emax cf. ACh, M4 ([2]; listed as 9-2 Isomer 3): 81%
9 | CCOC(=O)N1C2CCC1CC(N1CCCC3(CC1)CNC(=O)O3)C2 (single isomer, unassigned) [Example 9-2 Isomer 4, ethyl 3-(2-oxo-1-oxa-3,8-diazaspiro[4.6]undec-8-yl)-8-azabicyclo[3.2.1]octane-8-carboxylate] | 10 |  | 5.01 |  | % Emax cf. ACh, M1 ([1]; listed as 9-2 Isomer 4): 103%; % Emax cf. ACh, M4 ([2]; listed as 9-2 Isomer 4): 66%
10 | CCOC(=O)N1CC2CCC1CC2N1CCC2(CC1)CNC(=O)C2 (single isomer, unassigned) [Example 3-1 Isomer 4, ethyl 5-(3-oxo-2,8-diazaspiro[4.5]dec-8-yl)-2-azabicyclo[2.2.2]octane-2-carboxylate] | 1260 |  | > 20000 |  | % Emax cf. ACh, M1 ([1]; listed as 3-1 Isomer 4): 62%; % Emax cf. ACh, M4 ([2]; listed as 3-1 Isomer 4): 7%
11 | CCOC(=O)N1C2CCC1CC(N1CCC3(CC1)OC(=O)NC3(C)C)C2 (single isomer, unassigned) [Example 2-18 Isomer 1] | 251 | 55 | > 20000 | 11 | 
12 | CCOC(=O)N1C2CCCC1CC(N1CCC3(CC1)CNC(=O)O3)C2 (single isomer, unassigned) [Example 5-4 Isomer 1] | 398 | 76 | > 20000 |  | % Emax cf. ACh, M4 ([2]; listed as 5-4 Isomer 1): 39%
13 | [2H]C([2H])([2H])COC(=O)N1C2CCC1CC(N1CCC3(CC1)CNC(=O)C3)C2 (single isomer, unassigned) [Example 2-31 Isomer 1] | 126 |  | 251 |  | % Emax cf. ACh, M1 ([1]; listed as 2-31 Isomer 1): 112%; % Emax cf. ACh, M4 ([2]; listed as 2-31 Isomer 1): 53%

— patent publication US12202843B2, “Muscarinic receptor agonists” (Nxera Pharma UK Limited, priority 2014, dated 2025)
